# Measured values published in US20100120738A1, “ANTI-APOPTOTIC BENZODIAZEPINE RECEPTOR LIGAND INHIBITORS” (priority 2006, published 2010).
# Read-outs that look alike come from different tables or passages of the source.
# Columns and labels:
# [1] = Superoxide dismutase (SOD) activity; type: biochemical
# PC12 cells = experiment: Protection against STS-induced apoptosis in PC12 cells (XTT viability assay); type: cell-based, rat
# Procedure: Rat pheochromocytoma (PC12) cells were cultured in collagen-coated 96-well plates according to directions provided by the American Type Culture Collection. Staurosporine was added at various concentrations sufficient to induce apoptosis. Test compounds were added together with the staurosporine. Cells were incubated overnight at 37° C., 5% CO2. After 18-24 hours, test media was removed and cell viability was determined using the XTT viability assay described by Baker et al., J. Pharmacol. Exp, Therapeutics 284, 215-221, 1998, the contents of which are incorporated herein by reference.
# [2] = tested on: Bovine capillary endothelial cells; experiment: Protection against radiation-induced apoptosis (DAPI apoptotic index); type: cell-based; conditions: for concentration providing protection from the apoptotic effects of ionizing radiation: DAPI staining, apoptotic index, 6 h
# Procedure: Bovine capillary endothelial cells were cultured on eight chamber Labtek slides and exposed to ionizing radiation (20 Gy) for 6 hours. After this time, cells were either left untreated or treated with compound at the concentration indicated on the x-axis. Cells were then fixed in methanol and stained with 5 μg/ml DAPI and DNA was visualized using a Nikon epifluorescence microscope, and apoptosis scored and expressed as an apoptotic index according to the percentage of apoptotic cells in a field of 100 cells. Open bars indicate apoptotic index following irradiation. Hatched bars indicate apoptotic index for control cells not receiving a dose of ionizing radiation.
# (§1) Bovine capillary endothelial cells were cultured on eight-chamber Labtek slides and exposed to ionizing radiation (20 Gy), which was calibrated using an X-ray exposure meter. […] In control experiments, cells either received no ionizing radiation (sham) or no compound. After 6 h incubation, the cells were fixed in methanol and stained with 5 μg/ml 4,6-diamidino-2-phenylindole (DAPI). DNA was visualized using a Nikon epifluorescence microscope, and apoptosis was scored and expressed as an apoptotic index (% apoptotic cells in a field of 100).
# [3] = tested on: cultured mesencephalic tissue slices; experiment: MPP+ induced neurodegeneration in cultured mesencephalic tissue slices (LDH release); type: cell-based, rat; conditions: 20 μM MPP+; for prevention of cytotoxicity induced by MPP+: compound 100 nM, 1.0 μM, 10 μM, FIG. 17
# Procedure: FIG. 17 is a graphical representation showing the effects of exemplary low molecular weight metalloporphyrin compounds of the present invention on MPP+ induced neurodegeneration in cultured mesencephalic tissue slices. Mesencephalic tissue slices were prepared from PND 3-5 rats and maintained in culture for 2 weeks. The tissue slices were incubated with a porphyrin compound as indicated on the x-axis for 6 hours before adding 20 μM MPP+ to induce neuronal apoptosis. Concentrations of each porphyrin compound tested were 100 nM ? 1.0 μM ? and 10 μM ? Following a further incubation for 48 hours, the slices were collected and the level of lactate dehydrogenase (LDH) released into the medium was determined.
# [4] = Oral bioavailability in vivo, plasma levels by LC-MS/MS after intragastric gavage; parameters: species or system rat; conditions: intragastric gavage, 4 mg/kg EUK-418 or 2 mg/kg EUK-423
# Procedure: FIG. 18 is a graphical representation showing the bioavailability in vivo for the compounds {[{(Porphine-5,15-diyl)bis[cyclopropyl-diyl]}](2-)-N^21,N^22,N^23,N^24} manganese(III) acetate (EUK-418) and {[{(Porphine-5,15-diyl)bis[benzyl-diyl]}](2-)-N^21,N^22,N^23,N^24} manganese(III) acetate (EUK-423) in rats. Fasted and fed Sprague-Dawley rats were dosed by intragastric gavage with either 4 mg/kg EUK-418 or 2 mg/kg EUK-423. At the times indicated on the x-axis, plasma was obtained from the animals and the concentrations of compounds determined by LC-MS/MS.
# Fasted and fed Sprague-Dawley rats were dosed by intragastric gavage with either 4 mg/kg EUK-418 or 2 mg/kg EUK-423. At time points up to 7 hr post-administration, animals were sacrificed, their blood collected over heparin, plasma samples prepared by centrifugation, and plasma levels of the compounds were determined by LC-MS/MS.
# [5] = Lipophilicity by octanol partitioning; type: physicochemical; conditions: for Log10 P value / P value (octanol partitioning coefficient): octanol-water
# Procedure: To indicate the likelihood that the compounds will cross lipid membranes and be absorbed once administered by oral means, their lipophilicities were determined by octanol partitioning. […] Quantitation was performed by HPLC-UV.
# [6] = Stability in USP simulated gastric fluid (SGF); type: in vitro ADME; conditions: 37° C., pH approx. 1.2
# From the text: Aliquots of SGF were withdrawn and intact compound quantitated by HPLC-UV.
# [7] = tested on: Bovine capillary endothelial cells; experiment: Cytotoxicity/necrosis of non-irradiated cells (LDH release, field number); type: cell-based
# Procedure: as §1, with “100). […] Field number was also calculated for all other compounds tested as a control (results not shown).” for “100).”
# To determine cytotoxicity of the compounds under these conditions, duplicate samples of the cells receiving a dose of compound at each concentration tested in the absence of a dose of ionizing radiation were assayed for release of LDH into the culture medium.
# [8] = biological target: mitochondrial benzodiazepine receptor (mBzR) (Homo sapiens, UniProt P30536); experiment: Inhibition of tritiated PK11195 binding to the receptor; conditions: read-out: Ki against the binding of PK11195
# Sequence of mitochondrial benzodiazepine receptor (mBzR) (P30536 whole entry, species assumed): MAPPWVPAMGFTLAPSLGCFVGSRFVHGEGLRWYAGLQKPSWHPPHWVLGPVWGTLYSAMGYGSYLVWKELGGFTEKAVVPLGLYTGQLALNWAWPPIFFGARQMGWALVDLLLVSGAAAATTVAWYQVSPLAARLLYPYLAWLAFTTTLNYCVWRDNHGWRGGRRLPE
# Procedure: Standard methods e.g., competition assays, are used to determine ge an inhibition, prevention or delay in binding of a ligand of a mitochondrial benzodiazepine receptor by a low molecular weight porphyrin derivative compound of the invention. As exemplified herein, labelled PK11195 compound is contacted with the receptor in the presence of different concentrations of a compound being tested and binding of the labelled PK11195 compound is determined. […] Preferably, the concentration of the compound being tested that inhibits binding of the ligand by 50% (i.e., […]) is determined.
# FIG. 15 is a graphical representation showing the ability of the compounds {[{(Porphine-5,15-diyl)bis[cyclopropyl-diyl]}](2-)-N^21,N^22,N^23,N^24} manganese (III) acetate (EUK-418) and (5,10,15,20-Tetra ethylporphyrinato) manganese (III) acetate (EUK-425) to inhibit binding of tritiated PK11195 to the mitochondrial benzodiazepine receptor (mBzR). The Ki value for each compound is indicated.
# FIG. 16 is a tabular representation showing a series of low molecular weight metalloporphyrin compounds designated EUK-418, EUK-423, EUK-424, EUK-425 and EUK-426, that inhibit ligand binding to the mitochondrial benzodiazepine receptor (mBzR) with moderate affinity, as determined by the Ki value (last column) for inhibition of tritiated PK11195, binding to the receptor. […]
# [9] = cuvette format, read-out: Cuvette IC50
# [10] = microplate format, read-out: Microplate IC50
# [11] = FIG. 12, at up to about 5 μM concentration, toxicity blunts protection at high concentrations
SMILES,"IC50 [1, 9] [µM]","IC50 [1, 10] [µM]",effect on staurosporine-induced apoptosis of PC12 cells (PC12 cells; FIG. 11),effect on staurosporine-induced apoptosis of PC12 cells (PC12 cells; [11]),concentration providing protection from the apoptotic effects of ionizing radiation ([2]; 20 Gy) [µM],"protection of cells exposed to ionizing radiation ([2]; about 3-10 μM compound, 20 Gy, p<0.006)","protection of cells exposed to ionizing radiation ([2]; low doses, FIG. 13 and FIG. 14)",prevention of cytotoxicity induced by MPP+ [3],plasma time course [4],found in plasma / bioavailable after oral administration ([4]; fasted and fed rats),Log10 P value [5],P value (octanol partitioning coefficient) [5],Percentage remaining after 90 mins in SGF [6] [%],"necrosis at the protective concentration ([7]; 3 μM EUK-418, about 3-10 μM EUK-423)","concentration causing significant increase in field number for control cells, indicating cytotoxicity ([7]; control cells without ionizing radiation) [µM]","EC50 ([3]; LDH release, read-out: EC50 in MPP+ slice model) [µM]",Ki [8] [µM],"necrosis at the doses tested ([7]; range of 0.5 μM to 100 μM, data therefore expressed as field number)",lipophilicity ([5]; octanol partitioning)
"CC(=O)O.CCOc1cccc(C=NCCN=Cc2cccc(OCC)c2O)c1O.[Mn] [EUK-189, reference compound]",0.55,0.824,,,,,,,,,,,,,,,,,
"C1=Cc2nc1cc1ccc([n-]1)c(-c1ccccc1)c1nc(cc3ccc([n-]3)c2-c2ccccc2)C=C1.CC(=O)[O-].[Mn+3] [EUK-423, {[{(Porphine-5,15-diyl)bis[benzyl-diyl]}](2-)-N^21,N^22,N^23,N^24} manganese(III) acetate]",17.3,4.1,effectively reduce apoptosis,effectively reduce apoptosis,3 to 10,approximately 87%,protected,prevent cytotoxicity,increased in plasma during the first four hour period,bioavailable in vivo,0.907 ± 0.002,8.07 ± 0.10,91.2,no detectable necrosis,≥ 30,,,,
"CC(=O)[O-].CC(C)c1c2nc(c(C(C)C)c3ccc([n-]3)c(C(C)C)c3nc(c(C(C)C)c4ccc1[n-]4)C=C3)C=C2.[Mn+3] [EUK-424, (5,10,15,20-Tetraisopropylporphyrinato)manganese (III) acetate]",,,,,,,,prevent cytotoxicity,,,,,,,,,,,
"CC(=O)[O-].CCc1c2nc(c(CC)c3ccc([n-]3)c(CC)c3nc(c(CC)c4ccc1[n-]4)C=C3)C=C2.[Mn+3] [EUK-425, (5,10,15,20-Tetraethylporphyrinato)manganese (III) acetate]",32.5,0.439,,effectively reduce apoptosis,,,,prevent cytotoxicity,,,0.932 ± 0.006,8.56 ± 0.35,97.0,,,< 0.1,0.027,necrosis was observed,
"CC(=O)[O-].COc1ccc(-c2c3nc(cc4ccc([n-]4)c(-c4ccc(OC)cc4)c4nc(cc5ccc2[n-]5)C=C4)C=C3)cc1.[Mn+3] [EUK-450, {[{(Porphine-5,15-diyl)bis[benzene-1,4 diyl (4-methyl-oxy)]}](2-)-N^21,N^22,N^23,N^24} manganese(III) acetate]",9.98,3.12,,effectively reduce apoptosis,,,,,,,0.650 ± 0.010,4.46 ± 0.11,98.1,,,,,,
"C1=Cc2nc1cc1ccc([n-]1)c(C1CCCCC1)c1nc(cc3ccc([n-]3)c2C2CCCCC2)C=C1.[Cl-].[Mn+3] [EUK-452, {[{(Porphine-5,15-diyl)bis[cyclohexyl-diyl]}](2-)-N^21,N^22,N^23,N^24} manganese(III) chloride]",20.1,9.05,,effectively reduce apoptosis,3,,,,,,1.973 ± 0.008,93.97 ± 1.67,98.2,,,,,,most lipophilic
"CCCc1c2nc(cc3ccc([n-]3)c(CCC)c3nc(cc4ccc1[n-]4)C=C3)C=C2.[Cl-].[Mn+3] [EUK-453, {[{(Porphine-5,15-diyl)bis[propyl-diyl]}](2-)-N^21,N^22,N^23,N^24} manganese(III) chloride]",60.9,2.3,,effectively reduce apoptosis,,,,,,,0.619 ± 0.017,4.16 ± 0.16,98.4,,,,,,
